Results from patent US11739098B2 (BRISTOL-MYERS SQUIBB COMPANY, priority 2017, dated 2023).
pIC50: −log10 of the molar value.

How the values were obtained:
Type in all cases: cell-based
[1] = target: T1, human TLR7 (Homo sapiens, UniProt Q9NYK1); assay: TLR7 inhibition reporter assay (HEK-Blue cells, SEAP reporter, gardiquimod stimulation); details: HEK-Blue cells overexpressing human TLR7, SEAP reporter, gardiquimod 7.5 μM
T1 construct: host or cells: HEK-Blue cells (HEK293-derived reporter line)
T1 sequence (Q9NYK1 27-1049): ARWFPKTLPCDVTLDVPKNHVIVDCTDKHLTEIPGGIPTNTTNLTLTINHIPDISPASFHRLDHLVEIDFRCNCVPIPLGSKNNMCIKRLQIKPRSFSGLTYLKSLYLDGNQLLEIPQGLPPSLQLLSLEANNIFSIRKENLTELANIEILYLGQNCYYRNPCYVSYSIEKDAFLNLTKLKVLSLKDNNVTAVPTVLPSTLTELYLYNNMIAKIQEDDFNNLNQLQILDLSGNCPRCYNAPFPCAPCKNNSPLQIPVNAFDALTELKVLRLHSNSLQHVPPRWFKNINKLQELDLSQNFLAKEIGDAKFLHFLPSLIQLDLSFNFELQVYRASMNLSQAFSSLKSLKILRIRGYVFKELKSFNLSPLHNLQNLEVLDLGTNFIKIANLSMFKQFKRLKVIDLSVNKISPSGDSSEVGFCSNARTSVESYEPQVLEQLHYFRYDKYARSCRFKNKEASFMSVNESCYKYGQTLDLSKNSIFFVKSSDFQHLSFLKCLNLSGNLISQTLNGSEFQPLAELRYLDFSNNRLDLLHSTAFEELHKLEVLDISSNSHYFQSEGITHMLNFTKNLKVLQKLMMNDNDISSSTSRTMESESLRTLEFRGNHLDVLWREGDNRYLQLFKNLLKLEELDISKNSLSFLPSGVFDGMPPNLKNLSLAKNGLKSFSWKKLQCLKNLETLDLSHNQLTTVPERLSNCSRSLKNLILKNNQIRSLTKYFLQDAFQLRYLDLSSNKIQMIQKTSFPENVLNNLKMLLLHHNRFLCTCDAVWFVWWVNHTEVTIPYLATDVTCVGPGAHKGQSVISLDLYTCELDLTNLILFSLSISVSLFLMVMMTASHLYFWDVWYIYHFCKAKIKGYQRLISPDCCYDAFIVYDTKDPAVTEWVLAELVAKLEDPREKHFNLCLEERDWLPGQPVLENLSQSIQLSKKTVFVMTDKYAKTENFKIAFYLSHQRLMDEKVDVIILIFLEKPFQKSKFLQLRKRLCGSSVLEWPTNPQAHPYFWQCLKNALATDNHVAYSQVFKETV
In short: (§1)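 HEK-Blue cells overexpressing the receptor, with NF-κB/AP-1-driven SEAP, were pre-treated 30 min at room temperature with compound (0.05 nM–50 μM), then stimulated with gardiquimod 7.5 μM (TLR7), R848 15.9 μM (TLR8) or ODN2006 5 nM (TLR9). SEAP was read after 22 h at 37 °C as percent inhibition.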

[2] = target: T2, human TLR8 (Homo sapiens, UniProt Q9NR97); assay: TLR8 inhibition reporter assay (HEK-Blue cells, SEAP reporter, R848 stimulation); details: HEK-Blue cells overexpressing human TLR8, SEAP reporter, R848 15.9 μM
T2 construct: host or cells: HEK-Blue cells (HEK293-derived reporter line)
T2 sequence (Q9NR97 27-1041): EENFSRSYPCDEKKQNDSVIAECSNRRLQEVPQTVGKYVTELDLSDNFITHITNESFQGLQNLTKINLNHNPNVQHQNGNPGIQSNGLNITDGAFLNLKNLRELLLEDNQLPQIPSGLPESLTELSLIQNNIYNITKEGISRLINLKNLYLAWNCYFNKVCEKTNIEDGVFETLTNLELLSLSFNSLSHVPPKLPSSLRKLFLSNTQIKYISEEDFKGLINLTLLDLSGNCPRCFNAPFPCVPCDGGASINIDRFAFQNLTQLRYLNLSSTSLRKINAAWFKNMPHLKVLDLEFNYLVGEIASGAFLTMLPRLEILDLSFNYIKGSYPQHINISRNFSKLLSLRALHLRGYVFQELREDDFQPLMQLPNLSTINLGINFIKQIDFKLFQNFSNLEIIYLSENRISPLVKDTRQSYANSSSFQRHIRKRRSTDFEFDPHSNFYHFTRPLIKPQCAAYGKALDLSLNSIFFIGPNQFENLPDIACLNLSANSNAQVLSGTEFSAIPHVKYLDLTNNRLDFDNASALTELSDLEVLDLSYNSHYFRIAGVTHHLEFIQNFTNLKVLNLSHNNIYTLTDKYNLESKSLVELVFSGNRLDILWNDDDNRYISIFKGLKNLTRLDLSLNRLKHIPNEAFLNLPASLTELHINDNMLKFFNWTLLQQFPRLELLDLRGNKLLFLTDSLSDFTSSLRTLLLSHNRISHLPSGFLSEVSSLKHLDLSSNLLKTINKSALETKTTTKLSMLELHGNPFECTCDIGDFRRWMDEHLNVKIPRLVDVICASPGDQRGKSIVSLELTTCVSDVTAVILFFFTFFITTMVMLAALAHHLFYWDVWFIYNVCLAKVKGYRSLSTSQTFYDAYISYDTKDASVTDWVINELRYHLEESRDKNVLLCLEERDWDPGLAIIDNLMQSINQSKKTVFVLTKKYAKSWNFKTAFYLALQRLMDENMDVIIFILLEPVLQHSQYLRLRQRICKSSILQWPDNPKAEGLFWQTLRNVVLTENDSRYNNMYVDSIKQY
In short: as §1

[3] = target: T3, human TLR9 (Homo sapiens, UniProt Q9NR96); assay: TLR9 inhibition reporter assay (HEK-Blue cells, SEAP reporter, ODN2006 stimulation); details: HEK-Blue cells overexpressing human TLR9, SEAP reporter, ODN2006 5 nM
T3 construct: host or cells: HEK-Blue cells (HEK293-derived reporter line)
T3 sequence (Q9NR96 26-1032): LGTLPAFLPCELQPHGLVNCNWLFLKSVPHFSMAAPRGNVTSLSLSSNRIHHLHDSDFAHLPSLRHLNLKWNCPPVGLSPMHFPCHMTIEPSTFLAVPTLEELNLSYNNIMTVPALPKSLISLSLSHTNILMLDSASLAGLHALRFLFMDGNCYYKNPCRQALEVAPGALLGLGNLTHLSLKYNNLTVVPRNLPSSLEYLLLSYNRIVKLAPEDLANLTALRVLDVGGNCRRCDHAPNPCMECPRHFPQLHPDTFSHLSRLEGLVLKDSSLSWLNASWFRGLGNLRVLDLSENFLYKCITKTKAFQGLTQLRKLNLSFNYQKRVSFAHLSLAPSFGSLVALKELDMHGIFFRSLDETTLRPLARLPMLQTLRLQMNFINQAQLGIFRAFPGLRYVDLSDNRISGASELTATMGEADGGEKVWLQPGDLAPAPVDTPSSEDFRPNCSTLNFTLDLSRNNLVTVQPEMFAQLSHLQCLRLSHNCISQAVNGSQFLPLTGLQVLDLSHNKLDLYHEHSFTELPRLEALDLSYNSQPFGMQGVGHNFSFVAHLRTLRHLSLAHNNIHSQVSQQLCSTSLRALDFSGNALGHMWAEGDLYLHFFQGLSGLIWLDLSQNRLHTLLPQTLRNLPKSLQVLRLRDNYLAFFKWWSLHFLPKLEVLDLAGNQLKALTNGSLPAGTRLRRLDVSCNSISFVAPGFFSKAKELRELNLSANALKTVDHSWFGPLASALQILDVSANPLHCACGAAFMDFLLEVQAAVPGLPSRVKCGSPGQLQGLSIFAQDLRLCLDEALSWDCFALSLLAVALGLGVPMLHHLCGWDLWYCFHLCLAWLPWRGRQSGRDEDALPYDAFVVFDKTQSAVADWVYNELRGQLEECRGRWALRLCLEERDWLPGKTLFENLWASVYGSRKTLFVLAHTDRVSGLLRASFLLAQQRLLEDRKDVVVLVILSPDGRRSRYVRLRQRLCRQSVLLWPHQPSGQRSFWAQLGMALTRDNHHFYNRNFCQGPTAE
In short: as §1

Row | pIC50 [1] | pIC50 [2] | pIC50 [3] | SMILES
1 | > 7.00 | 6.00 to 7.00 | > 7.00 | Cc1cn2cc(-c3[nH]c4ccc(C5CCN(Cc6c[nH]cn6)CC5)cc4c3C(C)C)ccc2n1 [Example 936, 6-(5-(1-((1H-imidazol-4-yl)methyl)piperidin-4-yl)-3-isopropyl-1H-indol-2-yl)-2-methylimidazo[1,2-a]pyridine]
2 | > 7.00 | 6.00 to 7.00 | 4.30 to 6.00 | CNC(=O)CN1CCC(c2ccc3[nH]c(-c4cc(C)c5nccnc5c4)c(C(C)C)c3c2)CC1 [Example 394, 2-(4-(3-isopropyl-2-(8-methylquinoxalin-6-yl)-1H-indol-5-yl)piperidin-1-yl)-N-methylacetamide]
3 | 4.30 to 6.00 | 4.30 to 6.00 | 4.30 to 6.00 | CCc1c(-c2cc3ccccc3o2)[nH]c2ccc(C3CCNCC3)cc12 [Example 186, 2-(benzofuran-2-yl)-3-ethyl-5-(piperidin-4-yl)-1H-indole]
4 | > 7.00 | > 7.00 | 6.00 to 7.00 | Cc1cc2nccn2cc1-c1[nH]c2ccc(C3CCN(C4CCOCC4)CC3)cc2c1C(C)C [Example 693, 6-(3-isopropyl-5-(1-(tetrahydro-2H-pyran-4-yl)piperidin-4-yl)-1H-indol-2-yl)-7-methylimidazo[1,2-a]pyridine]
5 | > 7.00 | 6.00 to 7.00 | 6.00 to 7.00 | CC(C)c1c(-c2ccnc3[nH]ncc23)[nH]c2cc(C(F)(F)F)c(C3CCN(CC4CCNC4)CC3)cc12 (stereo not drawn) [Example 851, 4-(3-isopropyl-5-(1-(pyrrolidin-3-ylmethyl)piperidin-4-yl)-6-(trifluoromethyl)-1H-indol-2-yl)-1H-pyrazolo[3,4-b]pyridine]
6 | > 7.00 | 6.00 to 7.00 | 4.30 to 6.00 | CC(C)c1c(-c2cc(C(C)C)c3nccn3c2)[nH]c2ccc(C3CCNCC3)cc12 [Example 260, 8-Isopropyl-6-(3-isopropyl-5-(piperidin-4-yl)-1H-indol-2-yl)imidazo[1,2-a]pyridine]
7 | > 7.00 | > 7.00 | 6.00 to 7.00 | CC(C)c1c(-c2cc(CO)c3nccn3c2)[nH]c2ccc(C3CCNCC3)cc12 [Example 124, (6-(3-isopropyl-5-(piperidin-4-yl)-1H-indol-2-yl)imidazo[1,2-a]pyridin-8-yl)methanol]
8 | > 7.00 | > 7.00 | 4.30 to 6.00 | CNC(=O)CN1CCC(c2ccc3[nH]c(-c4cc(C)n5nncc5c4)c(C(C)C)c3c2)CC1 [Example 320, 2-(4-(3-isopropyl-2-(7-methyl-[1,2,3]triazolo[1,5-a]pyridin-5-yl)-1H-indol-5-yl)piperidin-1-yl)-N-methylacetamide]
9 | 6.00 to 7.00 | 6.00 to 7.00 | 6.00 to 7.00 | CCc1c(-c2ccn3cnnc3c2)[nH]c2ccc(C3CCNCC3)cc12 [Example 204, 7-(3-ethyl-5-(piperidin-4-yl)-1H-indol-2-yl)-[1,2,4]triazolo[4,3-a]pyridine]
10 | 4.30 to 6.00 | 6.00 to 7.00 | 4.30 to 6.00 | CC(C)c1c(-c2ccnc3[nH]cc(O)c23)[nH]c2ccc(C3CCNCC3)cc12 [Example 216, 4-(3-isopropyl-5-(piperidin-4-yl)-1H-indol-2-yl)-1H-pyrrolo[2,3-b]pyridin-3-ol]
11 | > 7.00 | 6.00 to 7.00 | < 4.30 | CC(=O)NCC(=O)N1CCC(c2ccc3[nH]c(-c4ccnc5[nH]ncc45)c(C(C)C)c3c2)CC1 [Example 567, N-(2-(4-(3-isopropyl-2-(1H-pyrazolo[3,4-b]pyridin-4-yl)-1H-indol-5-yl)piperidin-1-yl)-2-oxoethyl)acetamide]
12 | > 7.00 | > 7.00 | 6.00 to 7.00 | CC(C)c1c(-c2ccnc3[nH]ncc23)[nH]c2ccc(C3CCN(C(=O)CN4CC[C@@H](N(C)C)C4)CC3)cc12 [Example 582, (R)-2-(3-(dimethylamino)pyrrolidin-1-yl)-1-(4-(3-isopropyl-2-(1H-pyrazolo[3,4-b]pyridin-4-yl)-1H-indol-5-yl)piperidin-1-yl)ethan-1-one]
13 | > 7.00 | > 7.00 | 4.30 to 6.00 | Cc1ncc(CN2CCC(c3ccc4[nH]c(-c5cn(C)c6ncccc56)c(C(C)C)c4c3)CC2)cn1 [Example 876, 3-(3-isopropyl-5-(1-((2-methylpyrimidin-5-yl)methyl)piperidin-4-yl)-1H-indol-2-yl)-1-methyl-1H-pyrrolo[2,3-b]pyridine]
14 | 4.30 to 6.00 | 4.30 to 6.00 | 4.30 to 6.00 | CC(C)c1c(-c2ccc(C#N)c3[nH]ncc23)[nH]c2ccc(C3CCNCC3)cc12 [Example 235, 4-(3-isopropyl-5-(piperidin-4-yl)-1H-indol-2-yl)-1H-indazole-7-carbonitrile]
15 | > 7.00 | > 7.00 | 4.30 to 6.00 | Cc1cc(-c2[nH]c3ccc(C4CCNCC4)cc3c2C(C)C)c2[nH]ncc2n1 [Example 49, 7-(3-isopropyl-5-(piperidin-4-yl)-1H-indol-2-yl)-5-methyl-1H-pyrazolo[4,3-b]pyridine]
